# Source: patent US10919896B2, “Preparation and uses of pyrimidinone derivatives” (Cancer Research Technology Limited, priority 2016, dated 2021)
# Counter-ions that a name gives are not always drawn.
# Test system: Cdc7 (pS53MCM2 levels in SW48 cells)
# Experiment: Cdc7 Cell Pharmacodynamics Assay Method 3: pS53MCM2 levels in SW48 cells, 6 hours
# Format: cell-based
# Conditions: Homo sapiens, SW48, 6 h, read-out: Biomarker Method 3 (pEC50) (converted)
row,EC50 [µM],Compound
1,0.589,"O=c1[nH]c(-c2ccnc(F)c2)nc(N2CCCC(F)(F)C2)c1Cl [Compound 90, 5-chloro-4-(3,3-difluoro-1-piperidyl)-2-(2-fluoro-4-pyridyl)-1H-pyrimidin-6-one]"
2,4.07,O=c1[nH]c(-c2ccncc2)nc(N2CCN[C@H](C(F)(F)F)C2)c1Cl [Compound 139]
3,0.339,O=c1[nH]c(-c2ccncc2)nc(N2CCN[C@@H](C(F)(F)F)C2)c1Cl [Compound 180]
4,0.145,"O=c1[nH]c(-c2ccnc(F)c2)nc(N2CCNCC(F)(F)C2)c1Cl [Compound 312, 5-chloro-4-(6,6-difluoro-1,4-diazepan-1-yl)-2-(2-fluoro-4-pyridyl)-1H-pyrimidin-6-one hydrochloride]"
5,0.0794,C[C@@H]1CNCCN1c1nc(-c2ccnc(F)c2)[nH]c(=O)c1Cl [Compound 323]
